pKi: −log10 of the molar value.
Assays:
5α-reductase = experiment: Affinity (Ki, Km) for 5α-reductase; format: biochemical
Text: The potency of any enzyme inhibitor is often expressed in terms of its inhibition constant, Ki, which is defined mathematically in terms of established relationships of enzyme-catalyzed reaction rates to inhibitor and substrate concentrations. […] In the case of the substrate, the corresponding value is known as the Km, the relationship to combining power being roughly the same.

preputial glands = experiment: Preputial gland weight in castrated male rats treated with testosterone; format: in vivo; conditions: 200 mg/kg gavage every 8 hours for 8 days plus testosterone 0.6 mg/rat s.c. daily; compared to control rats
[1] = system: testosterone 5α-reductase; experiment: Inhibition of 5α-reductase isolated from rat prostate gland (prostate microsomes, 4-14C-testosterone); format: biochemical; conditions: testosterone 2×10^-6 M, microsomes equivalent to 180 mg fresh tissue
ventral prostate = experiment: Prostate weight in castrated male rats treated with testosterone (benign prostatic hypertrophy procedure); format: in vivo; conditions: 200 mg/kg gavage every 8 hours for 8 days plus testosterone 0.6 mg/rat s.c. daily; compared to testosterone only (Group II)
Procedure: The effectiveness of the present compounds for the treatment of benign prostatic hypertrophy can be illustrated by the following procedure using 3 groups of castrated male rats. Starting 10 days after castration, Test Group I (5 animals) received 200 mg/kg of (5α,20R) -4-diazo-21-hydroxy-20-methylpregnan-3-one, given by gavage every 8 hours for 8 days as a suspension in 0.25 % aqueous Methocel. Starting 8 hours after the first dose of test compound, the animals also received testosterone daily at a dose of 0.6 mg/rat s.c. in olive oil. The last dose of test compound was administered 8 hours after the last dose of testosterone and the animals were sacrificed 8 hours later. Test Group II (12 animals) received only the testosterone treatment described above while the third group of rats (10 animals) served as controls and received the oral and s.c. vehicles only. At sacrifice, the ventral prostate was removed and weighed.

C[C@H](CO)[C@H]1CC[C@H]2[C@@H]3CC[C@H]4C(=[N+]=[N-])C(=O)CC[C@]4(C)[C@H]3CC[C@]12C
pKi (5α-reductase): 7.46
affinity for the enzyme relative to the substrate (testosterone) (5α-reductase; vs Km of testosterone): 29 times
potency relative to the previous inhibitor (5α-reductase; vs previously known inhibitor of the comparison): 6.3 times

C[C@@H](CO)[C@H]1CC[C@H]2[C@@H]3CC[C@H]4C(=[N+]=[N-])C(=O)CC[C@]4(C)[C@H]3CC[C@]12C [(5α,20R)-4-Diazo-21-hydroxy-20-methylpregnan-3-one]
weights of preputial glands (preputial glands): significantly less than weights of preputial glands of the control rats
inhibition of the conversion of testosterone to 5α-reduced products ([1]; inhibitor 3×10^-7 M): 75%
inhibition of the conversion of testosterone to DHT and androstanediol (ADIOL) overall ([1]; inhibitor 3×10^-8 M): 49%
prostatic weight (ventral prostate) (ventral prostate): significant reduction in prostatic weight

CC(CO)[C@H]1CC[C@H]2[C@@H]3CCC4=CC(=O)CC[C@]4(C)[C@H]3CC[C@]12C (stereo partly drawn) [reference compound]
pKi (5α-reductase): 6.66

C[C@]12CC[C@H]3[C@@H](CCC4=CC(=O)CC[C@@]43C)[C@@H]1CC[C@@H]2O [testosterone, reference compound]
Km (5α-reductase; substrate): 1 µM
